Here are results for one compound from US12509727B2, “Composition for diagnosis of Sjögren's syndrome” (THE CATHOLIC UNIVERSITY OF KOREA INDUSTRY-ACADEMIC …, priority 2017, dated 2025).

Type in all cases: in vivo, human
The test system of assay [1] is Sjögren's syndrome dry eye patients. Put plainly: Clinical evaluation of ocular surface parameters before and after topical corticosteroid treatment. Conditions: SS DE patients, after one month topical corticosteroid with artificial tears, mean ± SD. On the procedure:
[…] participated in this Example (FIG. 1): 40 patients with Sjögren's syndrome dry eye (SS DE) (78 eyes), 24 patients with non-Sjögren's syndrome dry eye (non-SS DE) (48 eyes), and 16 normal healthy subjects as controls (25 eyes). 16 patients of the 40 patients with Sjögren's syndrome dry eye were treated with topical corticosteroid (4 times per one day for 1 month, 0.1% fluoromeladone, Sam-II Pharmaceutics Co. Seoul, Korea). […] All patients with Sjögren's syndrome dry eye were diagnosed with primary Sjögren's syndrome by a rheumatologist according to the 2012 Sjögren's International Collaborative Clinical Alliance (SICCA) classification criteria. This study excluded Sjögren's syndrome patients or subjects who had been treated with disease-modifying therapies. Due to the unique prevalence of females and males found in Sjögren's syndrome (F:M=9:1), only female patients participated in the study for the prevention of the data misinterpretation. Exclusion criteria were pregnant women, nurses, contact lens wearers, tear point closure patients, persons with eye surgery within 6 months, persons with acute or chronic eye disease other than dry eye syndrome, persons with concomitant allergies, persons with eyelid abnormalities, persons with Grade 2 or higher dysfunction of the meibomian gland. This study also excluded, as a subject, persons who had received other systemic treatments or other topical treatments other than artificial tears within the past 3 months.
The following ocular surface examinations were conducted on the 82 subjects; Schirmer I test, tear film breakup time (TBUT), ocular surface staining (OSS) score, and ocular surface disease index (OSDI) questionnaire.
The Schirmer I test was performed without anesthesia before injecting the drug into the eye. The standard Schirmer's strips were placed on the side ⅓ of the lower eyelid. After 5 minutes, the strips' wetness was measured by using a millimeter scale of the strips (Eagle Vision, Memphis, TN). Tear strips were cut horizontally and placed in cryovials. They were stored frozen for further analysis. To assess TBUT, one drop of the saline without preservatives was added to a fluorescein strip (Haag-Streit, Koeniz, Switzerland). It was applied to the conjunctiva of the lower eyelid. The patients blinked their eye 3 to 4 times for a few seconds for mixing thoroughly with the dye. Then, the test was conducted by using a slit lamp with cobalt blue light. The time until the defect appeared in the stained tear film was measured and recorded as TBUT. TBUT was measured three times and the score was averaged. OSS scores including conjunctival and corneal staining scores were evaluated according to the SICCA registry ocular examination protocol. First, one drop of 2% sterile fluorescein was put on the conjunctival sac to permeate. After one minute, the corneal staining score was assessed by evaluating fluorescein staining using a slit lamp with cobalt blue filter. The punctate epithelial erosions (PEE) stained with fluorescein were calculated and scored. When there is no PEE, the score is zero. When PEE is 1 to 5, the corneal score is 1; When PEE is 6 to 30, the score is 2; When PEE exceeds 30, the score is 3. Additional points were added when there were one or more fused staining portions, when there was staining in the pupil area of the cornea, or when there were one or more filaments in any part of the cornea. The maximum available score is 6 for each cornea. In order to measure the conjunctival staining score, fluorescein was washed with the saline without preservatives. Then, one drop of 1% Lissamine green dye (Leiter's Pharmacy San Jose, California) was applied to the lower conjunctival fornix of both eyes. […]

The test system of a further assay is ATG5 protein. Put plainly: Western blotting of tears, relative concentration measurement, after corticosteroid treatment. The conditions noted are these: tears of SS DE patients; level before treatment 5.06±0.31; statistically significantly decreased. How it is done:
(§1) Tears were collected from the Schirmer strips which absorbed the tear fluid as in Example 1. In order to extract tears, the Schirmer strips were placed in tubes containing extraction buffer (NaCl 0.5 M, Tween 20 0.5% in PBS). After one hour, the strips were transferred to a 0.5 ml tube with a hole at the bottom thereof using a cannula. The tube was inserted into a larger tube (1.5 ml). It was centrifuged at 12,000 rpm for 15 minutes. The centrifugal force caused the fluid to be drawn from the strip. Thus, the tear fluid passed through the center hole at the bottom of the small tube and was collected into the external 1.5 ml tube. The tear fluid was mixed with the sample-loading buffer, heated for 10 minutes, and centrifuged. Then, the protein concentration in the clear isolate was determined by using the BCA protein assay kit (Thermo Fisher Scientific, Rockford, IL). […] The improved chemical luminescence reagent (ECL; Amersham Biosciences, Sweden) was used to detect the protein band. […]
(§2) After applying topical corticosteroids to Sjögren's syndrome dry eye patients, change in the clinical parameters was assessed as well as autodigestion marker expression. After one month with topical corticosteroid therapy with artificial tears, OSDI score, Schirmer I value, TBUT, corneal staining, conjunctival staining, and OSS score were measured as in Example 1. […]
For orientation: In western blotting, separated proteins are transferred to a membrane and probed.

The subject of the next assay is LC3B-II/I protein ratio. The assay is described as above. Conditions: tears of SS DE patients; level before treatment 1.87±0.10; statistically significantly decreased. On the procedure: as §1, §2
In another assay the test system is ATG5 mRNA. Put plainly: Real-time PCR of conjunctival epithelial cells (impression cytology) after corticosteroid treatment. Conditions: conjunctival epithelial cells of SS DE patients; level before treatment 13.16±4.36; statistically significantly decreased. How it is done: (§3) IC was carried out 15 minutes after the last stained eye solution was permeated by using a polyethersulfone filter (Suopor 200 membrane, Pall Corporation, Port Washington, New York). The filter paper was cut in half (13×6.5 mm). The sides were attached on the upper side-nasal and the upper side-temporal bulbar conjunctiva, respectively. With 0.05% paraformaldehyde (PFA), the filter attached on the upper side-nasal conjunctiva was transferred into a tube containing 2 ml of PBS for immunostaining. The paper attached on the upper side-temporal conjunctiva was collected from the filter paper up to 3 hours for the RNA extraction.
(§4) RNAs were isolated from IC using TRIzol reagent (Gibco-Invitrogen, Grand Island, New York) according to the modified protocol (Barabino S et al., Immune response in the conjunctival epithelium of patients with dry eye. Experimental eye research 2010; 91: 524-9). […] The […] method was used for relative quantification. […]
as §2

For a further assay, the system named is LC3B-II mRNA. The assay is described as above. Conditions: conjunctival epithelial cells of SS DE patients; level before treatment 12.93±4.44; statistically significantly decreased. On the procedure:
as §3, §4, §2

Assay [2] relates to autodigestion marker (ATG5 and LC3B-II) in the conjunctiva. Nature of the assay: Immunostaining of ATG5 and LC3B-II of conjunctiva before and after corticosteroid treatment. The conditions noted are these: SS DE patients after the corticosteroid treatment; representative immunohistochemical images. On the procedure: as §3
The IC filter paper having isolated epithelial cells was firmly pressed against a silane-coated slide (Muto Pure Chemicals Co., ltd. Tokyo, Japan). Thus, the epithelial cells were transferred onto the slide. They were used for immunofluorescence staining according to the Baudouins protocol. […]
as §2

Each structure is given as a SMILES string.

As for `CC(=O)[C@@]1(O)CC[C@H]2[C@@H]3C[C@H](C)C4=CC(=O)C=C[C@]4(C)[C@@]3(F)[C@@H](O)C[C@@]21C` [corticosteroid, fluoromeladone], the “Conjunctival staining score (0-6), after treatment” value in assay [1] (before treatment 2.13 ± 1.90, P 0.0018) was found to be 1.06 ± 1.70. The “TBUT, after treatment” value in assay [1] (before treatment 2.16 ± 2.22, P 0.0007) is given as 3.84 ± 1.90 s. Besides, the “Schirmer value, after treatment” value in assay [1] (before treatment 2.34 ± 1.66, P 0.0088) is on record as 3.78 ± 2.41 mm. For the same compound, in assay [1] (before treatment 2.78 ± 1.10, P <0.0001), the “Corneal staining score (0-6), after treatment” value is 1.59 ± 1.21. Further, the “Ocular surface staining score (0-12), after treatment” value in assay [1] (before treatment 4.84 ± 3.08, P <0.0001) turned out to be 2.53 ± 2.55. Also, the “OSDI score (0-100), after treatment” value in assay [1] (before treatment 50.19 ± 19.17, P 0.0411) is given as 39.80 ± 17.89. Besides, the “ATG5 protein (vs β-actin) in tears after corticosteroid treatment” value in the assay with ATG5 protein was “approximately 0.88±0.07 times in change”. In the assay on LC3B-II/I protein ratio, the “LC3B-II/I protein ratio in tears after corticosteroid treatment” value is reported as approximately 1.27±0.08 times in change. The “ATG5 gene encoding level after corticosteroid treatment” value with ATG5 mRNA is “approximately 1.23±0.27 times in change”. For the same compound, the “LC3B-II gene encoding level after corticosteroid treatment” value in the assay with LC3B-II mRNA is given as approximately 2.57±0.48 times in change. Also, the “staining spotting pattern of the autodigestion marker in the conjunctiva” value in assay [2] is “normalized”.
